Measurements from patent US20150336948A1, “Isotopically Labeled Biaryl Urea Compounds” (Merck Sharp & Dohme Corp., priority 2012, published 2015).
Read-outs that look alike come from different tables or passages of the source.

Experiments:
NFTs = test: In vitro autoradiography, human AD brain slice, hippocampus (NFTs, PHF6 stain on adjacent slice); type: binding
Experimental: (§1) To assess presence of amyloid plaques and NFTs in the tested human brain samples, the adjacent human AD brain slices were used for autoradiography (ARG) and immunohistochemistry (IHC) studies. ARG was done using isotopically labeled compounds which bind selectively to amyloid plaques or NFTs. IHC was performed with antibodies for amyloid-beta (Aβ) (6E10 (Covance)) and phosphorylated tau (p-tau) (PHF6 (Covance)). Tissue homogenate binding was performed using human AD brain homogenates of cerebral cortex. Human brains from donor without neurological disorder were used as control in the same study. […]
(§2) The frozen human brain samples of Alzheimer's disease (AD) and non-AD were purchased from Analytic Biological Services Inc. Frozen brain slices (20 μm thickness) were prepared using a cryostat (Leica CM3050) and kept in sequential order. […] Total binding of radioligand in a brain slices was defined in the absence of competitor, and non-specific binding (NSB) was determined in the presence of competitor (1.0 μM unlabeled self block). […] After one week exposure, the plates were scanned in Fuji BAS 5000 Scanner, and the scanned images were analyzed using MCID 7.0 software. [^3H]-microscales (Amersham Biosciences, GE), were used for quantification of radioligand binding density. FIGS. 3 and 4 have ARG images detected through this method.

amyloid plaques = test: In vitro autoradiography, human AD brain cortex slice (amyloid plaques, 6E10 stain on adjacent slice); type: binding; conditions: adjacent slice 6E10 positive
Experimental: as §1, §2

[1] = molecular target: T1, In Vitro Assembled Tau filaments (full length tau 4R2N, T40 isoform) (Homo sapiens, UniProt P10636); test: Displacement binding assay with in vitro assembled tau filaments; conditions: 0.4 uM tau filaments
T1 construct: full length tau monomer (4R2N, T40 isoform)
T1 sequence (P10636 1-441 isoform P10636-8): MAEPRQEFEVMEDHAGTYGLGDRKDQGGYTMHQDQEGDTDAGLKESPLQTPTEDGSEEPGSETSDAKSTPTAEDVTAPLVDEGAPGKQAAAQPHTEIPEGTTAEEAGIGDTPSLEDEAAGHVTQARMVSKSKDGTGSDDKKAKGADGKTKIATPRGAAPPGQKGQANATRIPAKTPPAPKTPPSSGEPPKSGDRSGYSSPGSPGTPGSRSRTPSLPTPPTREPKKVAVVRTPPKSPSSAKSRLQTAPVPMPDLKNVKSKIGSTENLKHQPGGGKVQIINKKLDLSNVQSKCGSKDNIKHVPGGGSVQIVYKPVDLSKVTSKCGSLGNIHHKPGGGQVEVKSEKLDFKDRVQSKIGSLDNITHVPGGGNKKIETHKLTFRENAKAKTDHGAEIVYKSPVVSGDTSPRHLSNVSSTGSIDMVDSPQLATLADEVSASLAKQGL
Experimental: In Vitro assembled tau filaments were prepared similarly to Barghorn et al, Methods Mol Biol. 2005, 299, 35-51.
Briefly, Twenty micromolar (uM) of full length tau monomer (4R2N, T40 isoform), was incubated at 37 degrees shaking for 14 days with 50 uM heparin, 2 mM DTT, and 0.04% sodium azide in 100 mM Sodium Acetate (NaOAC) buffer pH7.0. All concentrations listed are final concentrations. Samples of the mixture were taken at 0, 10, and 14 days, and filament formation was examined using Thioflavin T binding compared to a control sample of filaments.
For the displacement binding assay, compound dilutions (1000×) were added into the 96-well plate (150 nL per well). 100% (1 uM self-block (unlabeled Compound—Example 1 or Example 4 dependent on the ^3H-labeled input compound—Example 6 or 7, respectively)) and 0% (DMSO) controls were included in each assay plate. In Vitro Assembled Tau filaments diluted in assay buffer (PBS+0.1% BSA) were added at a final concentration of 0.4 uM per well. Subsequently, either ^3H compound of Example 7 or ^3H compound of Example 6 was added to each well at a final concentration of 8 nM. Incubation was carried out at room temperature (25° C.) for 90 minutes, and then the assay samples were filtered onto GF/B filter plates that had been blocked at least 1 hour with 50 uL 0.2% PEI using a PerkinElmer Filtermate 96-well plate harvester, washing 6 times with ice cold buffer (5 mM Tris, pH 7.4). Plates were dried in a vacuum oven at 37° C. for 1 hour, then plates were sealed on the back, and 50 ul of Microscint-20 was added to each well. The tops of the plates were sealed, and then plates were read in a PerkinElmer TopCount. Data analysis was performed using internally developed software (Assay Data Analyzer).

[2] = radioligand [3H] Example 7 at 8 nM, read-out: IC50, displacement of [3H] compound of Example 7 from in vitro assembled tau filaments

Structure (SMILES)	IC50 [1, 2] [nM]	also measured
[3H]c1cc(-c2cn(C)c3cnccc23)cc([3H])c1NC(=O)Nc1c([3H])cccc1OC [Example 6, [^3H]-(2-methoxyphenyl)-3-(4-(1-methyl-1H-pyrrolo[2,3-c]pyridin-3-yl)phenyl)urea]		autoradiographic binding pattern compared with PHF6 stain of NFTs in hippocampus (NFTs; 5 nM radioligand, human AD brain slice, adjacent slice IHC): consistent with the autoradiographic binding pattern; specificity for Tau over Aβ (ARG evidence) (NFTs; human AD brain slices, FIGS. 3 and 4): measurable specificity; binding to amyloid plaques in cortex region (autoradiography) (amyloid plaques): lack of
COc1ccccc1NC(=O)Nc1ccc(-c2cnn(C)c2)cc1 [Example 3, 1-(2-methoxyphenyl)-3-(4-(1-methyl-1H-pyrazol-4-yl)phenyl)urea]	33.6	
Cn1cc(-c2ccc(NC(=O)Nc3ccccc3O)cn2)c2ccncc21 [Example 5, 1-(2-hydroxyphenyl)-3-(6-(1-methyl-1H-pyrrolo[2,3-c]pyridin-3-yl)pyridin-3-yl)urea]	92	
COc1ccccc1NC(=O)Nc1ccc(-c2cnn3c2CCC3)cc1 [Example 2, 1-(4-(5,6-dihydro-4H-pyrrolo[1,2-b]pyrazol-3-yl)phenyl)-3-(2-methoxyphenyl)urea]	25.1	

Now from value to compound, other results behind:

IC50 [1, 2] [nM]	Structure (SMILES)	also measured
13.6	COc1ccccc1NC(=O)Nc1ccc(-c2cn(C)c3cnccc23)cc1 [Example 1, 1-(2-methoxyphenyl)-3-(4-(1-methyl-1H-pyrrolo[2,3-c]pyridin-3-yl)phenyl)urea]	IC50 ([1]; radioligand [3H] Example 6 at 8 nM, self-block, read-out: apparent IC50, inhibition of [3H] compound of Example 6 binding to in vitro assembled filaments): 3 nM
20.2	COc1ccccc1NC(=O)Nc1ccc(-c2cn(C)c3cnccc23)nc1 [Example 4, 1-(2-methoxyphenyl)-3-(6-(1-methyl-1H-pyrrolo[2,3-c]pyridin-3-yl)pyridin-3-yl)urea]	
